Data from PubChem BioAssay (NCI).
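Cells were grown in 96-well plates and exposed to each compound for 48 hours at five concentrations; endpoints were interpolated linearly between bracketing concentrations, or set to the highest concentration if not reached. GI50 = concentration required for 50% inhibition of growth. TGI: concentration producing complete growth inhibition.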

Experiments:
Experiment in all cases: NCI anticancer screen, dose series, 48 h
EKVX NSCLC = system: EKVX NSCLC
SK-MEL-2 melanoma = system: SK-MEL-2 melanoma
HCT-15 colon = system: HCT-15 colon
SW-620 colon = system: SW-620 colon
786-0 renal = system: 786-0 renal
K-562 leukemia = system: K-562 leukemia
TK-10 renal = system: TK-10 renal
NCI/ADR-RES ovarian = system: NCI/ADR-RES ovarian

| SMILES | TGI (EKVX NSCLC) | TGI (SK-MEL-2 melanoma) | TGI (HCT-15 colon) | TGI (SW-620 colon) | TGI (786-0 renal) | TGI (K-562 leukemia) | TGI (TK-10 renal) | TGI (NCI/ADR-RES ovarian) | GI50 (EKVX NSCLC) | GI50 (SK-MEL-2 melanoma) | GI50 (HCT-15 colon) | GI50 (SW-620 colon) | GI50 (K-562 leukemia) | GI50 (TK-10 renal) | GI50 (NCI/ADR-RES ovarian) |
| --- | --- | --- | --- | --- | --- | --- | --- | --- | --- | --- | --- | --- | --- | --- | --- |
| O=c1[nH]c(=O)n(COCc2ccccc2)c2ccccc12 | > 100 µM | > 100 µM | > 100 µM | > 100 µM | > 100 µM | > 100 µM | > 100 µM | 92.7 µM |  |  |  |  |  |  |  |
| O=c1[nH]nc(Cc2ccc(Cl)cc2)n1/N=C/c1c[nH]c2ccccc12 | > 100 µM | > 100 µM | > 100 µM | > 100 µM | > 100 µM | > 100 µM | > 100 µM | > 100 µM |  |  |  |  |  |  |  |
| NCCS(=O)(=O)O | > 100 µM | > 100 µM | > 100 µM | > 100 µM | > 100 µM | > 100 µM | > 100 µM | > 100 µM |  |  |  |  |  |  |  |
| COc1cc2[nH]c(=O)c3cc(C)cc4c(Cl)nc(c1OC)c2c43 | > 100 µM | > 100 µM | > 100 µM | > 100 µM | > 100 µM | > 100 µM | > 100 µM | > 100 µM |  |  |  |  |  |  |  |
| CCOC(=O)C(NC(=O)CC)(Nc1ccc(S(=O)(=O)Nc2ccc(OC)nn2)cc1)C(F)(F)F (configuration not stated) | > 100 µM | > 100 µM | > 100 µM | > 100 µM | > 100 µM | > 100 µM | > 100 µM | > 100 µM |  |  |  |  |  |  |  |
| Cc1cc2oc3c(ccc(=O)n3C)c(=O)c2c(C)c1Cl | > 100 µM | > 100 µM | > 100 µM | > 100 µM |  | > 100 µM | > 100 µM | > 100 µM |  |  |  |  |  |  |  |
| O=C1c2cccnc2-c2nccc3c2c1nc1ccc(Br)cc13 | 0.311 µM | 0.306 µM | 0.116 µM | 0.17 µM | 0.0986 µM | 0.331 µM | 0.749 µM | 0.176 µM |  |  |  |  |  |  |  |
| Nc1ccccc1OCCCOc1ccccc1N | > 100 µM | > 100 µM | > 100 µM | > 100 µM | > 100 µM | > 100 µM | > 100 µM | > 100 µM |  |  |  |  |  |  |  |
| COC12C=CC(CC1)C(C)(C)C2OS(C)(=O)=O (configuration not stated) | > 100 µM | > 100 µM | > 100 µM | > 100 µM | > 100 µM | > 100 µM | > 100 µM | > 100 µM |  |  |  |  |  |  |  |
| O=C(NNS(=O)(=O)c1ccccc1)c1csc(NC(=S)NC2CCCCC2)n1 | > 100 µM | 41.7 µM | > 100 µM | 72.9 µM | 32.4 µM | > 100 µM | > 100 µM | > 100 µM |  |  |  |  |  |  |  |
| O=S(c1ccc(Cl)cc1)c1ccccc1C1=NCCN1 (configuration not stated) | > 100 µM | > 100 µM | > 100 µM | > 100 µM | > 100 µM | > 100 µM | > 100 µM | > 100 µM |  |  |  |  |  |  |  |
| CC(=O)O[C@H]1C[C@](C)(O)[C@@]23CC([C@@H](OC(=O)C(C)(C)O)[C@@H](OC(C)=O)C2(COC(=O)c2ccccc2)[C@H]1OC(C)=O)C(C)(C)O3 (some centres not stated) | > 100 µM | > 100 µM | > 100 µM | > 100 µM | > 100 µM | > 100 µM | > 100 µM | > 100 µM |  |  |  |  |  |  |  |
| COc1cccc([C@@H]2CC(=O)c3cc4c(cc3N2)OCO4)c1 | > 100 µM | > 100 µM | > 100 µM | > 100 µM | > 100 µM | > 100 µM | > 100 µM | > 100 µM |  |  |  |  |  |  |  |
| CN(C)C=NCC(O)c1ccccc1 (configuration not stated) | > 100 µM | > 100 µM | > 100 µM | > 100 µM | > 100 µM | > 100 µM | > 100 µM | > 100 µM |  |  |  |  |  |  |  |
| CC(=O)N1C(Nc2cccc3nc(C)ccc23)CCN1c1ccccc1 (configuration not stated) | > 10 µM | > 10 µM | > 10 µM | > 10 µM | > 10 µM | > 10 µM | > 10 µM | > 10 µM |  |  |  |  |  |  |  |
| Cc1ccc(N=C2SC(=NN(C)C)SC2=Nc2ccc(C)cc2)cc1 | > 100 µM | > 100 µM | > 100 µM | > 100 µM | > 100 µM | > 100 µM | > 100 µM | > 100 µM |  |  |  |  |  |  |  |
| COc1cc(/C(=C2/O[C@@H]([C@H]3COC(C)(C)O3)[C@H]3OC(C)(C)O[C@@H]23)c2ccc3c(c2)OCO3)cc(OC)c1OC | > 25 µM | > 25 µM | > 25 µM | > 25 µM |  | > 25 µM | > 25 µM | > 25 µM | > 25 µM | > 25 µM | > 25 µM | > 25 µM | > 25 µM | > 25 µM | > 25 µM |
| C[C@]12CC[C@H](O)CC1=CC[C@@H]1[C@@H]2CC[C@]2(C)C(=O)/C(=C/c3ccc([N+](=O)[O-])cc3)C[C@@H]12 | 24.9 µM | 36.5 µM | > 100 µM | > 100 µM | 10.8 µM | > 100 µM |  | 61.1 µM |  |  |  |  |  |  |  |
| O=C1CCCCN1C(=O)c1ccc([N+](=O)[O-])cc1 | > 100 µM |  | > 100 µM | > 100 µM | > 100 µM | > 100 µM | > 100 µM | > 100 µM |  |  |  |  |  |  |  |
| COc1cc(S(=O)(=O)Nc2ccc(-c3csc(N4C(=O)C(C)SC4c4ccccc4)n3)cc2)ccc1Cl (configuration not stated) | > 100 µM | 21.5 µM | > 100 µM | > 100 µM | > 100 µM | > 100 µM |  | > 100 µM |  |  |  |  |  |  |  |
